Tested on: melatonin receptor type 1 gene (MT1)
Assay: Impact of vitamin E on melatonin receptor expression in rat brain (high-density oligonucleotide microarrays)
Type: in vivo
Details: male rats, vitamin E containing diet vs vitamin E deficient diet, monitored over 9 months at 4 time-points, brain/hippocampus
Method: The impact of vitamin E on melatonin receptor expression in rat hippocampus was determined as follows: Two groups of male rats were randomly assigned to either a VE sufficient diet or to a diet deficient in VE for 270 days. High-density oligonucleotide microarrays comprising over 7,000 genes were used to assess the transcriptional response of the brain. Differential gene expression was monitored over a period of 9 months, at 4 different time-points.

melatonin receptor type 1 gene (MT1) expression in the brain: strongly and consistently up-regulated
Substance: vitamin E

From patent US20070149509A1, “Use of vitamin e” (priority 2003, published 2007)
